Reference: PMC4635503, “High-affinity nitrate/nitrite transporters NrtA and NrtB of Aspergillus nidulans exhibit high specificity and different inhibitor sensitivity” (Microbiology, 2015)
Values after ≈ are worked out from the molar mass of the structure shown. “Also recorded” adds a separate entry of the source. Like-named read-outs stand apart in the source and are kept apart here.

Assays:
[1] = test system: NrtB; assay type: cell-based, Aspergillus nidulans; details: for nature of inhibition of nitrate transport (Lineweaver–Burk): NrtB (expressed in nrtA1); for Ki: nrtA1 (NrtB), inhibitor concentration reducing net nitrate uptake rate by 50 % of control, mean ± SE
Procedure: (§1) These were performed on cultures grown in liquid AMM with 5 mM urea as nitrogen source for a total of 6.5 h at 37 °C ([Brownlee & Arst, 1983]). Urea was used as it (i) is a neutral nitrogen source, neither inducing nor repressing nitrate transport, (ii) has been used routinely in the past and (iii) permitted direct comparison with previously published results. […] Transporter activity was induced by the addition of 10 mM sodium nitrate 100 min prior to assay as described previously ([Brownlee & Arst, 1983]). Assays were carried out in triplicate, generally at pH 6.5, on three independently grown cultures for each strain and expressed as nmol nitrate removed from the medium min^ − 1 (mg dried mycelium)^ − 1, as discussed before ([Brownlee & Arst, 1983]; [Kinghorn et al., 2005]; [Unkles et al., 2012]). Both carbonic acid and bicarbonate chemical species can occur at pH 6.5. Thus potential inhibition of nitrate transport by carbonic acid/bicarbonate was tested at pH 6.5 and bicarbonate at pH 8.3.
(§2) To effectively assess net uptake, it is necessary that any export, i.e. simultaneous transport in the reverse direction, is minimal.
(§3) Values of K m and V max were calculated by linear regression of Lineweaver–Burk analyses (1/v against 1/s, where v is net uptake and s is substrate concentration). The kinetic values of nitrate transport by the WT and mutants were compared with those from a previous report ([Unkles et al., 2001]). […] Therefore the kinetic values in the absence of inhibitors from the present study were used as control values. Each K i value was determined by regression of the rates of net nitrate uptake transport versus the range of concentrations of a particular inhibitor: linear or nonlinear regression was used, depending on which type provided the highest r ^2 value. Calculated from each regression was the concentration of the inhibitor that reduced net nitrate uptake rate by 50 % of the control (without inhibitor) rate, which was assessed as the K i value. Lineweaver–Burk analyses were carried out to determine the nature of the inhibition of nitrate transport for each inhibitor.

[2] = test system: NrtA, NrtB (WT strain); parameters: method as in Brownlee & Arst (1983); details: 1 mM chlorate, cells grown for 6 or 17 h, ref Brownlee & Arst (1983); cited from earlier work
[3] = target: T1, NrtA (Emericella nidulans, UniProt P22152); parameters: mutant nrtB110 (expressing a functional NrtA); endogenous in cells; host or cells: Aspergillus nidulans mycelium, knockout strain nrtB110, nitrate-induced; method as in Zhou et al. (2000); details: NrtA expressed in Xenopus oocytes; ref Zhou et al. (2000); cited from earlier work
[4] = target: T1, NrtA; test: cell-based; parameters: mutant nrtB110 (expressing a functional NrtA); endogenous in cells; host or cells: Aspergillus nidulans mycelium, knockout strain nrtB110, nitrate-induced; species or system Aspergillus nidulans; details: for Ki: K i, nrtB110 (NrtA), inhibitor concentration reducing net nitrate uptake rate by 50 % of control, mean ± SE; for nature of inhibition of nitrate transport (Lineweaver–Burk): NrtA (expressed in nrtB110)
Procedure: as §1, §2, §3

[5] = test system: NrtB; parameters: method as in Brownlee & Arst (1983); details: crnA1 (nrtA1) mutant, 1 mM chlorate, cells grown for 6 or 17 h; ref Brownlee & Arst (1983); cited from earlier work
[6] = target: NrtA, NrtB (WT strain); test: Net nitrate uptake assay and kinetics, WT strain; assay type: cell-based, Aspergillus nidulans; details: WT (NrtA, NrtB), inhibitor concentration reducing net nitrate uptake rate by 50 % of control, mean ± SE
Procedure: as §1, §2, §3

[7] = test system: A. nidulans WT strain (NrtA, NrtB); test: MIC growth test on solid AMM, WT strain; assay type: cell-based, Aspergillus nidulans; details: Aspergillus nidulans
Procedure: (§4) Fungal growth tests were carried out in standard Petri dishes containing defined Aspergillus minimal medium (AMM) agar ([Cove, 1976]), with sodium nitrate or proline as the sole nitrogen source, at 1 or 10 mM concentration. Strains were tested for inhibition by bicarbonate, formate, oxalate, chlorite, sulphite (all purchased as the sodium salt), chlorate (potassium salt), malonate (acid form) or caesium (chloride salt). Stock aqueous solutions of inhibitors were adjusted to pH 6.5 and prepared immediately before use. It should be noted that at pH 6.5, bicarbonate is in approximately 50 % equilibrium with carbonic acid. […] Cultures were incubated routinely at 37 °C for 48 h, and the growth response was scored.
(§5) Each treatment was carried out in five replicates. […] As caesium was utilized as a chloride salt, a control for potential inhibition by chloride was assessed, by growth on 100 mM sodium chloride (Fig. 4).

[8] = test system: A. nidulans mutant nrtB110 (functional NrtA); test: microbe, parasite or virus in culture; assay type: cell-based, Aspergillus nidulans; details: nrtB110 (NrtA)
Procedure: as §4, §5

[9] = test system: nitrate transport by NrtA and NrtB; test: Net nitrate transport inhibition assays, strain not specified; assay type: cell-based, Aspergillus nidulans; details: net nitrate transport; data not shown
Procedure: as §1, §2

[10] = test system: NitA; details: data not shown
[11] = test system: A. nidulans mutant nrtA1 (functional NrtB); test: microbe, parasite or virus in culture; assay type: cell-based, Aspergillus nidulans; details: Aspergillus nidulans
Procedure: as §4, §5

[12] = test system: A. nidulans double mutant tbl110 (nrtA747 nrtB110, neither transporter); test: microbe, parasite or virus in culture; assay type: cell-based, Aspergillus nidulans; details: T110 (neither transporter)
Procedure: as §4, §5

[13] = 1 mM nitrate as sole nitrogen source, solid AMM, 37 °C
[14] = 1 mM proline as sole nitrogen source
[15] = 10 mM proline as sole nitrogen source
[16] = Aspergillus nidulans, 1 mM nitrate as sole nitrogen source
[17] = Aspergillus nidulans, 10 mM proline as sole nitrogen source
[18] = 10 mM nitrate as sole nitrogen source
[19] = Aspergillus nidulans, 1 mM proline as sole nitrogen source

T1 sequence (P22152 whole entry): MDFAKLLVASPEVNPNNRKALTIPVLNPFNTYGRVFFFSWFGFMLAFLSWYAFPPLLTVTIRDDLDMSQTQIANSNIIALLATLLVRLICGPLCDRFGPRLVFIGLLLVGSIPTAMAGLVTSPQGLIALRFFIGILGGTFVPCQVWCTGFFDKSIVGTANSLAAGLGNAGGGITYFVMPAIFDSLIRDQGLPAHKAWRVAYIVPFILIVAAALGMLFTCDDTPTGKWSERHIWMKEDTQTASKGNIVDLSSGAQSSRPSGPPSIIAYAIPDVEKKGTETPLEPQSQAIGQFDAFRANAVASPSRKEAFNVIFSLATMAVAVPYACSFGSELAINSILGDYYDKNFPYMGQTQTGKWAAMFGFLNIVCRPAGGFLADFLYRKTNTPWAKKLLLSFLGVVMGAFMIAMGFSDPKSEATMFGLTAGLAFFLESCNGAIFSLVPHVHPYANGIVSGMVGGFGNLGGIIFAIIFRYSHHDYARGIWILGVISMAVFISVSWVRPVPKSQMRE

| Compound | nature of inhibition of nitrate transport (Lineweaver–Burk) [1] | Ki [1] [mM] | substrate / transport by NrtA in oocytes [3] | Ki [4] [mM] | nature of inhibition of nitrate transport (Lineweaver–Burk) [4] | Ki [6] [mM] | MIC [7, 13] [µM] | MIC [7, 14] [µM] | MIC [7, 15] [µM] | MIC [8, 16] [µM] | MIC [8, 17] [µM] | other results |
| --- | --- | --- | --- | --- | --- | --- | --- | --- | --- | --- | --- | --- |
| [O-][Cl+2]([O-])O [Chlorate, chlorate] | non-competitive inhibition | 44.3 ± 2.3 | did not, however, observe transport | 29.3 ± 2.8 | competition with nitrate | 29.9 ± 3.7 | 100000 (≈ 8450 µg/mL) | 50000 (≈ 4220 µg/mL) | 25000 (≈ 2110 µg/mL) | 50000 (≈ 4220 µg/mL) | 50000 (≈ 4220 µg/mL) | nature of inhibition of nitrate transport (Lineweaver–Burk) ([1]; listed as chlorate): non-competitively; Ki ([1]; listed as chlorate): ~44 mM; net nitrate transport activity retained ([1]; nrtA1 (functional NrtB), 10 mM chlorate, data not shown): 93%; reduction of nitrate transport [2]: 80%; nature of inhibition of nitrate transport (Lineweaver–Burk) ([4]; listed as chlorate): competitive inhibitor; activity at 10000 µM ([4]; read-out: net nitrate transport activity retained): 65%; reduction of nitrate transport [5]: 80%; Ki ([6]; listed as chlorate): ~30 mM |
| [O-][Cl+]O [Chlorite, chlorite] | non-competitive inhibition | 0.34 ± 0.02 | substrate | 0.49 ± 0.01 | competitive; also recorded: competition | 0.35 ± 0.02 | 200 (≈ 13.7 µg/mL) | 500 (≈ 34.2 µg/mL) | 1000 (≈ 68.5 µg/mL) | 100 (≈ 6.85 µg/mL) | 3000 (≈ 205 µg/mL) | concentration sufficient to prevent transport of nitrate completely [9]: 1 mM; substrate for nitrite transporter NitA [10]: significant substrate; MIC [7, 18]: 500 µM (≈ 34.2 µg/mL); MIC ([11]; 1 mM nitrate as sole nitrogen source): 200 µM (≈ 13.7 µg/mL); MIC [11, 14]: 500 µM (≈ 34.2 µg/mL); MIC [11, 18]: 500 µM (≈ 34.2 µg/mL); MIC [11, 15]: 2000 µM (≈ 137 µg/mL); MIC [8, 19]: 500 µM (≈ 34.2 µg/mL); MIC ([8]; Aspergillus nidulans, 10 mM nitrate as sole nitrogen source): 500 µM (≈ 34.2 µg/mL); MIC [8, 15]: 3000 µM (≈ 205 µg/mL); MIC [12, 19]: > 500 µM; MIC [12, 17]: 5000 µM (≈ 342 µg/mL); MIC [12, 14]: >500 µM |
